How the values were obtained:
[1] = biological target: GDP-bound HRAS wild-type protein (Homo sapiens, UniProt P01112); assay: Binding to HRAS by surface plasmon resonance (SPR), Single Cycle Kinetics; conditions: SPR; for HRAS/KRAS (ratio of KD value with respect to HRAS to KD value with respect to KRAS): GDP-bound HRAS wild-type vs GDP-bound KRAS wild-type
[2] = biological target: GDP-bound NRAS wild-type protein (Homo sapiens, UniProt P01111); assay: Binding to NRAS by surface plasmon resonance (SPR), Single Cycle Kinetics; conditions: SPR; for NRAS/KRAS (ratio of KD value with respect to NRAS to KD value with respect to KRAS): GDP-bound NRAS wild-type vs GDP-bound KRAS wild-type
GDP-bound NRAS wild-type protein, sequence (P01111 whole entry): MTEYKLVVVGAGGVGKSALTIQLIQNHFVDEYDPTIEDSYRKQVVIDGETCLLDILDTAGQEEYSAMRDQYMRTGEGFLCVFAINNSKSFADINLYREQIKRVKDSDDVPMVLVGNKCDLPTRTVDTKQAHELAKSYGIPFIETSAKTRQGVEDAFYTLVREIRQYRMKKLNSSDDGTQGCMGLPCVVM

GDP-bound HRAS wild-type protein, sequence (P01112 whole entry): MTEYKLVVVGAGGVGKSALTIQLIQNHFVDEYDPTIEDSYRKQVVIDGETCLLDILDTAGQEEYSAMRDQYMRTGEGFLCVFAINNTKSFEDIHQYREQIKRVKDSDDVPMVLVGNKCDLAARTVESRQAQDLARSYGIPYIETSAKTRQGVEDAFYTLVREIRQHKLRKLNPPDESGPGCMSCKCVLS

CCO[C@@H]1C[C@H]2C(=O)NC3(CCC3)C(=O)N(C)[C@@H](C3CCCC3)C(=O)N(C)[C@H](C(=O)N(C)C)CC(=O)N(C)[C@@H](CC)C(=O)N[C@@H]([C@@H](C)CC)C(=O)N(C)CC(=O)N(C)[C@H]3C/C=C\CCN(C3=O)[C@@H](Cc3ccc(C(F)(F)F)cc3)C(=O)N(C)CC(=O)N[C@@H](CCc3cc(F)c(C(F)(F)F)c(F)c3)C(=O)N2C1 [PP0824]
HRAS/KRAS (ratio of KD value with respect to HRAS to KD value with respect to KRAS) ([1]; KD ratio): A (a compound having 10 or more and less than 20 is denoted as A) | NRAS/KRAS (ratio of KD value with respect to NRAS to KD value with respect to KRAS) ([2]; KD ratio): A (a compound having 10 or more and less than 20 is denoted as A)

CC[C@H](C)[C@@H]1NC(=O)[C@H](C)N(C)C(=O)C[C@@H](C(=O)N2CCOCC2)N(C)C(=O)[C@H](C2CCCC2)N(C)C(=O)C2(CCCC2)NC(=O)[C@@H]2CCCN2C(=O)[C@H](CCc2cc(F)c(C(F)(F)F)c(F)c2)NC(=O)CN(C)C(=O)[C@H](Cc2ccc(C(F)(F)F)cc2)N2CCCCC[C@@H](C2=O)N(C)C(=O)CN(C)C1=O [PP0487]
HRAS/KRAS (ratio of KD value with respect to GDP-bound HRAS wild-type protein to KD value with respect to KRAS) [1]: B (a compound having 3 or more and less than 10 is denoted as B) | NRAS/KRAS (ratio of KD value with respect to GDP-bound NRAS wild-type protein to KD value with respect to KRAS) [2]: B (a compound having 3 or more and less than 10 is denoted as B)

CCO[C@@H]1C[C@H]2C(=O)NC3(CCCC3)C(=O)N(C)[C@@H](C3CCCC3)C(=O)N(C)[C@H](C(=O)N3CCOCC3)CC(=O)N(C)[C@@H](CC(C)C)C(=O)N[C@@H]([C@@H](C)CC)C(=O)N(C)CC(=O)N(C)[C@H]3CCCCCN(C3=O)[C@@H](Cc3ccc(C(F)(F)F)cc3)C(=O)N(C)CC(=O)N[C@@H](CCc3cc(F)c(C(F)(F)F)c(F)c3)C(=O)N2C1 [PP0492]
HRAS/KRAS (ratio of KD value with respect to GDP-bound HRAS wild-type protein to KD value with respect to KRAS) [1]: B (a compound having 3 or more and less than 10 is denoted as B) | NRAS/KRAS (ratio of KD value with respect to GDP-bound NRAS wild-type protein to KD value with respect to KRAS) [2]: B (a compound having 3 or more and less than 10 is denoted as B)

CCO[C@@H]1C[C@H]2C(=O)NC3(CCC3)C(=O)N(C)[C@@H](C3CCCC3)C(=O)N(C)[C@H](C(=O)N3CCOCC3)CC(=O)N(C)[C@@H](CC)C(=O)N[C@@H]([C@@H](C)CC)C(=O)N(C)CC(=O)N(C)[C@H]3CC/C=C(/C)CN(C3=O)[C@@H](Cc3ccc(C(F)(F)F)cc3)C(=O)N(C)CC(=O)N[C@@H](CCc3cc(F)c(C(F)(F)F)c(F)c3)C(=O)N2C1 [PP1335]
HRAS/KRAS (ratio of KD value for GDP-bound HRAS wild-type protein to KD value for KRAS) ([1]; KD ratio class): B (a compound having 3 or more and less than 10 is denoted as B) | NRAS/KRAS (ratio of KD value for GDP-bound NRAS wild-type protein to KD value for KRAS) ([2]; KD ratio class): B (a compound having 3 or more and less than 10 is denoted as B)

CCOC[C@H]1C(=O)N[C@@H]([C@@H](C)CC)C(=O)N(C)CC(=O)N(C)[C@H]2C/C=C\CCN(C2=O)[C@@H](CC2CCC(F)(F)CC2)C(=O)N(C)CC(=O)N[C@@H](CCc2ccc(C(F)(F)F)c(OC)c2)C(=O)N2C[C@H](OCC)C[C@H]2C(=O)NC2(CC(C)(C)C2)C(=O)N(C)[C@@H](C(CC)CC)C(=O)N(C)[C@H](C(=O)N(C)C)CC(=O)N1C [PP2446]
HRAS/KRAS (ratio of KD value with respect to HRAS to KD value with respect to KRAS) [1]: A (a compound having 10 or more and less than 20 is denoted as A) | NRAS/KRAS (ratio of KD value with respect to NRAS to KD value with respect to KRAS) [2]: A (a compound having 10 or more and less than 20 is denoted as A)

CCCOC[C@H]1C(=O)N[C@@H]([C@@H](C)OCC)C(=O)N2CCC[C@H]2C(=O)N(C)[C@H]2C/C=C\CCN(C2=O)[C@@H](Cc2ccc(C)cc2)C(=O)N(C)CC(=O)N[C@@H](CCc2cc(F)c(C(F)(F)F)c(F)c2)C(=O)N2C[C@H](OCC)C[C@H]2C(=O)NC2(CC(C)(C)C2)C(=O)N(C)[C@@H](C2CCCC2)C(=O)N(C)[C@H](C(=O)N(C)CC)CC(=O)N1C [PP2432]
HRAS/KRAS (ratio of KD value with respect to HRAS to KD value with respect to KRAS) [1]: A (a compound having 10 or more and less than 20 is denoted as A) | NRAS/KRAS (ratio of KD value with respect to NRAS to KD value with respect to KRAS) [2]: A (a compound having 10 or more and less than 20 is denoted as A)

CCO[C@@H]1C[C@H]2C(=O)NC3(CCC3)C(=O)N(C)[C@@H](C3CCCC3)C(=O)N(C)[C@H](C(=O)N(C)C)CC(=O)N(C)[C@@H](CC)C(=O)N[C@@H]([C@@H](C)CC)C(=O)N(C)CC(=O)N(C)[C@H]3CCCCN(C3=O)[C@@H](Cc3ccc(C(F)(F)F)cc3)C(=O)N(C)CC(=O)N[C@@H](CCc3ccc(OC(F)F)c(F)c3)C(=O)N2C1 [PP0986]
HRAS/KRAS (ratio of KD value with respect to HRAS to KD value with respect to KRAS) ([1]; KD ratio): C (A compound having a KD ratio of 0.1 or more and less than 3 is denoted as C) | NRAS/KRAS (ratio of KD value with respect to NRAS to KD value with respect to KRAS) ([2]; KD ratio): C (A compound having a KD ratio of 0.1 or more and less than 3 is denoted as C)

CCO[C@@H]1C[C@H]2C(=O)N(C)C3(CC(C)(C)C3)C(=O)N(C)[C@@H](C3CCCC3)C(=O)N(C)[C@H](C(=O)N(C)C)CC(=O)N(C)[C@H]3CCC/C=C/c4ccc(cc4)C[C@@H](C(=O)N(C)CC(=O)N[C@@H](CCc4ccc(Cl)c(Cl)c4)C(=O)N2C1)N1CC/C=C\C[C@@H](C1=O)N(C)C(=O)CN(C)C(=O)[C@H]([C@@H](C)CC)NC3=O [PP3059]
HRAS/KRAS (ratio of KD value with respect to GDP-bound HRAS wild-type protein to KD value with respect to KRAS) ([1]; GDP-bound wild-type proteins): A (a compound having 10 or more and less than 20 is denoted as A) | NRAS/KRAS (ratio of KD value with respect to GDP-bound NRAS wild-type protein to KD value with respect to KRAS) ([2]; GDP-bound wild-type proteins): A (a compound having 10 or more and less than 20 is denoted as A)

— US20250230193A1, “CYCLIC COMPOUND HAVING SELECTIVE KRAS INHIBITORY EFFECT ON HRAS AND NRAS” (CHUGAI SEIYAKU KABUSHIKI KAISHA, priority 2022, published 2025)
